Source: patent US4244952A, “Imidazo[2',1':2,3]-thiazolo[5,4-c]pyridines and composition thereof for treating immune diseases” (Yoshitomi Pharmaceutical Industries, Ltd., priority 1978, dated 1981)

Columns and labels:
[1] = tested on: rosette forming cells (RFC) in the spleen and thymus; test: Activity for potentiating immune response in dd-mice (RFC number after SRBC sensitization in CY-treated mice); format: in vivo, male dd-strain mice
Procedure: (I) Activity for potentiating immune response in dd-mice
As test animals, male dd-strain mice (8 week old) were used by dividing them into groups of 6 members. Each mouse was orally administered once a day with cyclophosphamide (CY) at a dose of 20 mg/kg 1 and 0 day before the sensitization. The sensitization (day 0) was made by the intravenous injection of the antigen; 1×10^8 sheep red blood cells (SRBC). Each mouse was orally administered with test compounds (day 0-4). Five days after the sensitization, the number of rosette forming cells (RFC) in the spleen and thymus was measured in a usual manner.

[2] = tested on: rosette forming cells (RFC) in the spleen and thymus; test: Activity for suppressing immune response in BALB/c mice (RFC number after SRBC sensitization); format: in vivo, female BALB/c-strain mice; details: 30 mg/kg p.o.; for RFC/organ Spleen: day 0 and 1; for RFC/organ Thymus: day 0 and 1, ** P < 0.01 vs. control
Procedure: (II) Activity for suppressing immune response in BALB/c mice
As test animals, female BALB/c-strain mice (6 week old) were used by dividing them into groups of 6 members.
The sensitization (day 0) was made by the intraperitoneal injection the antigen; 5×10^8 sheep red blood cells (SRBC). Each mouse was orally administered with test compounds at day 0 and 1. Four days after the sensitization, the number of rosette forming cells (RFC) in the spleen and thymus was measured in a usual manner.

[3] = Acute toxicity; details: mouse, in vivo, male dd-strain mice
Procedure: Acute toxicity of the test compound was determined using male dd-strain mice (8 week old) as test animals. The test compound was administered orally or intraperitoneally.

[4] = CY (20 mg/kg) + test compound 1 mg/kg p.o., day 0-4, * P < 0.05 vs. CY treatment
[5] = CY (20 mg/kg) + test compound 1 mg/kg p.o., day 0-4, ** P < 0.01 vs. CY treatment
[6] = CY (20 mg/kg) + test compound 10 mg/kg p.o., day 0-4
[7] = CY (20 mg/kg) + test compound 10 mg/kg p.o., day 0-4, * P < 0.05 vs. CY treatment
[8] = CY alone, 20 mg/kg p.o. once a day, 1 and 0 day before sensitization, dd-mice

SMILES	RFC/organ Thymus [1, 4]	RFC/organ Spleen [1, 5]	RFC/organ Spleen [1, 6]	RFC/organ Thymus [1, 7]	RFC/organ Spleen [2]	RFC/organ Thymus [2]	LD50 ([3]; ip) [mg/kg]	LD50 ([3]; po) [mg/kg]	RFC/organ Spleen [1, 8]	RFC/organ Thymus [1, 8]	number of RFC per spleen and thymus ([1]; group treated with CY alone)
CCOC(=O)N1CCc2c(sc3nc(-c4ccc([N+](=O)[O-])cc4)cn23)C1 [Compound A, 7-ethoxycarbonyl-2-(4-nitrophenyl)-5,6,7,8-tetrahydroimidazo[2',1':2,3]thiazolo[5,4-c]pyridine]	3.33 × 10^4	169 × 10^4	220 × 10^4	3.11 × 10^4	174 × 10^4	0.00 × 10^4	600	1000			
O=P1(N(CCCl)CCCl)NCCCO1 (stereo not shown) [CY, cyclophosphamide, reference compound]									101 × 10^4	0.44 × 10^4	reduced significantly
O=[N+]([O-])c1ccc(CN2CCc3c(sc4nccn34)C2)cc1 [Compound B, 7-(4-nitrobenzyl)-5,6,7,8-tetrahydroimidazo[2',1':2,3]thiazolo-[5,4-c]pyridine]	2.00 × 10^4	291 × 10^4	135 × 10^4	1.56 × 10^4	104 × 10^4	0.14 × 10^4	600 to 1000	600			
